Where no end group is shown, it is not given here. The star is where a group is joined. Hexanoyl = CCCCCC(=O)*
Legend:
B16-F1 melanocytes = test: B16 Pigmentation Assay (melanin secretion); assay type: cell-based, mouse; conditions: B16-F1 cells, 6 days
Procedure: Melanogenesis is the process by which melanocytes produce melanin, a naturally produced pigment that imparts color to skin, hair, and eyes. Inhibiting melanogenesis is beneficial to prevent skin darkening and lighten dark spots associated with aging. Melanogenesis in B16 cells was determined in the presence or absence of niacinamide by measuring melanin secretion. It was determined that niacinamide inhibits melanogenesis by 30%.
Melanogenesis was determined using B16-F1 melanocytes (ATCC), an immortalized mouse melanoma cell line. The endpoint of this assay was a spectrophotometric measurement of melanin production and cellular viability. B16-F1 melanocytes, were cultivated in standard DMEM growth medium with 10% fetal bovine serum (Mediatech) at 37° C. in 10% CO2 and then treated with or without niacinamide for 6 days. Following incubation, melanin secretion was measured by absorbance at 405 nm and cellular viability was quantified.

mushroom tyrosinase = test: Mushroom Tyrosinase Activity Assay; assay type: biochemical; conditions: substrate L-Dopa
Procedure: In mammalian cells, tyrosinase catalyzes two steps in the multi-step biosynthesis of melanin pigments from tyrosine (and from the polymerization of dopachrome). Tyrosinase is localized in melanocytes and produces melanin (aromatic quinone compounds) that imparts color to skin, hair, and eyes. The activity of tyrosinase on its substrate L-Dopa in the presence or absence of oligopeptide-1 was determined using a colorimetric mushroom tyrosinase activity assay. It was determined that oligopeptide-1 inhibits tyrosinase by 40%. Tyrosinase activity was assayed by measuring the ability of purified mushroom tyrosinase (Sigma) to oxidize its substrate, L-Dopa (Fisher), in the presence or absence of oligopeptide-1. Oxidation of L-DOPA by the tyrosinase produced a pigment that was evaluated by colorimetric plate reading at 490 nm. The percent inhibition of mushroom tyrosinase activity was calculated and compared to non-treated controls to determine the ability of test ingredients to inhibit the activity of purified enzyme. Test inhibition was compared with that of the known tyrosinase inhibitor kojic acid (Sigma).

[1] = tested on: elastin production in cultured human fibroblasts; test: Elastin Stimulation Assay; assay type: cell-based
Procedure: Elastin is a connective tissue protein that helps skin resume shape after stretching or contracting. Elastin is also an important load-bearing protein used in places where mechanical energy is required to be stored. Elastin is made by linking many soluble tropoelastin protein molecules, in a reaction catalyzed by lysyl oxidase. Elastin production was determined in cultured human fibroblasts incubated in the presence or absence of oligopeptide-1. It was determined that oligopeptide-1 increased elastin production by 23%.
Elastin secretion and elastin fibers were monitored by staining of cultured human fibroblasts using antibodies directed against elastin. Human fibroblasts were treated with or without oligopeptide-1. Following incubation, elastin content was measured using immunofluorescent antibodies directed against elastin.

[2] = tested on: TNF-α production in keratinocytes; test: Inhibition of Tumor Necrosis Factor Alpha (ELISA, PMA-treated keratinocytes); assay type: cell-based, human; conditions: PMA 10 ng/ml, 6 hours
Procedure: TNF-α is the prototype ligand of the TNF superfamily. It is a pleiotropic cytokine that plays a central role in inflammation. Increase in its expression is associated with an up regulation in pro-inflammatory activity. The bioassay used to analyze the effect of oligopeptide-1 and Opuntia ficus-indica extract used a spectrophotometric measurement that reflects the presence of TNF-α and cellular viability. It was determined that oligopeptide-1 and Opuntia ficus-indica extract inhibits TNF-α production in keratinocytes by 40% and 50%.
Subconfluent normal human adult keratinocytes (Cascade Biologics) cultivated in EpiLife standard growth medium (Cascade Biologics) at 37° C. in 5% CO2, were treated with phorbol 12-myristate 13-acetate (PMA, 10 ng/ml, Sigma Chemical, #P1585-1MG) and either oligopeptide-1 or Opuntia ficus-indica extract (treated samples) or no additional treatment (untreated sample) for 6 hours. PMA causes a dramatic increase in TNF-α secretion which peaks at 6 hours after treatment. Following incubation, cell culture medium was collected and the amount of TNF-a secretion quantified using a sandwich enzyme linked immuno-sorbant assay (ELISA) from R&D Systems (#DTA00C).
Briefly, the ELISA assay employed the quantitative sandwich enzyme immunoassay technique whereby a monoclonal antibody specific for TNF-α was been pre-coated onto a microplate. […]

[3] = tested on: procollagen peptide production in human epidermal fibroblasts; test: Collagen Stimulation Assay (procollagen peptide ELISA); assay type: cell-based; conditions: 3 days
Procedure: Collagen is an extracellular matrix protein critical for skin structure. Increased synthesis of collagen helps improve skin firmness and elasticity. Collagen stimulation was determined using a sandwich enzyme linked immuno-sorbant assay (ELISA) from Takara (#MK101) by measuring production of procollagen peptide (a precursor to collagen) in human epidermal fibroblasts incubated in the presence or absence of oligopeptide-1 or Prunus mume extract. It was determined that oligopeptide-1 increased collagen stimulation by 20% and Prunus mume extract increased collagen stimulation by 71%.
Collagen stimulation can be monitored by a spectrophotometric measurement that reflects the presence of procollagen peptide and cellular viability. The assay employs the quantitative sandwich enzyme immunoassay technique whereby a monoclonal antibody specific for procollagen peptide has been pre-coated onto microplate wells. […] Following incubation, cell culture medium was collected (samples and controls) and the amount of procollagen peptide secretion was quantified using a sandwich enzyme linked immuno-sorbant assay (ELISA) from Takara (#MK101). […] The color development was stopped and the color development was measured at 450 nm by a microplate reader.

NC(=O)c1cccnc1 [Niacinamide, 3-Pyridinecarboxamide]
inhibits melanogenesis by (B16-F1 melanocytes): 30% | Inhibition of Melanogenesis: Activity (B16-F1 melanocytes; negative = inhibition): −30%

caprooyl-Gly-His-Lys-Lys (Hexanoyl-GHKK) [Oligopeptide-1, modified tetrapeptide; Lucas Meyer, trade name ChroNOline]
inhibits tyrosinase by (mushroom tyrosinase): 40% | Inhibition of Tyrosinase: Activity (mushroom tyrosinase; negative = inhibition): −40% | increased elastin production by [1]: 23% | Elastin Production: Activity ([1]; positive = increase): +23% | inhibits TNF-α production in keratinocytes by [2]: 40% | Inhibition of TNF-α: Activity ([2]; negative = inhibition): −40% | increased collagen stimulation by [3]: 20% | Collagen Stimulation: Activity ([3]; positive = increase): +20%

From US10722436B2, “Topical compositions” (MARY KAY INC., priority 2015, dated 2020)
